# From patent US11618746B2, “Inhibitors of APOL1 and methods of using same” (Vertex Pharmaceuticals Incorporated, priority 2018, dated 2023)
# Target: T1, G1 APOL1 (Homo sapiens, UniProt O14791, I384M/S342G)
# T1 construct: expressed in transfected cells
# T1 sequence (O14791 28-398 S342G/I384M): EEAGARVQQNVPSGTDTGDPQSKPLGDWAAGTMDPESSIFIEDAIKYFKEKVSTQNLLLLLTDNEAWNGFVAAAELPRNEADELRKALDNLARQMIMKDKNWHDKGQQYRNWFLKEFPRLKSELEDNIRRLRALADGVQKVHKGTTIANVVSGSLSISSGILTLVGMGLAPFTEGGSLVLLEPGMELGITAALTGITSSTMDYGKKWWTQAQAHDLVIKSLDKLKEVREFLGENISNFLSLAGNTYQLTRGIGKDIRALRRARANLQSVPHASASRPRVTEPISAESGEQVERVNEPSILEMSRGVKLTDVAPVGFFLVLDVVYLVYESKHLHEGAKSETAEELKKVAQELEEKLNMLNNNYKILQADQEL
# Assay: Acute APOL1 Thallium Assay with inducible stable clones of HEK 293 cells
# Type: cell-based
# Conditions: HEK T-Rex tetracycline-inducible cells expressing G1 APOL1 (clone G1 DC3.25); inhibition of thallium flux rate
# Text: Acute APOL1 Thallium Assay with Inducible Stable Clones of HEK 293 Cells
# Apolipoprotein L1 (APOL1) proteins form potassium-permeable cation pores in the plasma membrane. APOL1 risk variants (G1 and G2) induce greater potassium flux than G0 in HEK293 cells. This assay exploits the permeability of thallium (T1+) through ligand-gated potassium channels. The dye produces a bright fluorescent signal upon binding to T1+ conducted through potassium channels. The intensity of the T1+ signal is proportional to the number of potassium channels in the open state. Therefore, it provides a functional indication of the potassium channel activities. During the initial dye-loading step, the T1+ indicator dye as an acetoxymethyl (AM) ester enters the cells through passive diffusion. Cytoplasm esterases cleave the AM ester and relieve its active thallium-sensitive form. The cells are then stimulated with T1+. The increase of fluorescence in the assay represents the influx of T1+ into the cell specifically through the potassium channel (i.e. through APOL1 pores), providing a functional measurement of potassium channel/pore activity. The Thallium assay is conducted with cells expressing G1 APOL1.
# APOL1 Cell Line (HEK T-Rex Stable Inducible Cell Line) • HEK T-Rex System • Tetracycline (Tet) inducible mammalian expression system. • Stably express the Tet repressor to regulate transcription. • Expression under the full-length CMV promoter. • APOL1 stable inducible cell line Clone used: G1 DC3.25
# Tissue Culture Media • Cell Culture Medium • DMEM +10% FBS +P/S +5 μg/mL blasticidin+1 μg/mL puromycin. • 500 mL DMEM +55 mL FBS +5 mL P/S +280 μL blasticidin S HCl (10 mg/mL)+56 μL puromycin (10 mg/mL). • Cell Assay Medium • DMEM with 2% FBS+pen strep.
# Instruments and Equipment • Nuaire cell culture hood, Cat. No. 540-600 • 37° C./5% CO2 incubator link to robotic arm, Liconic: STX110 • Molecular Devices FLIPR^Tetra High throughput cellular screening system, Cat. No. FT0324, Molecular Devices • ThermoFisher MultiDrop 384, Cat. No. 5840300 • Biotek Microfill, Cat. No. ASF1000A-4145 • BioRad TC10 cell counter, Cat. No. 145-0010 Assay Procedures
# Cells Scaled Up from Frozen Vials • APOL1 G1 3.25 (HEK293 T-Rex) frozen vials: 5 million cells per vial • Step 1, Day 1: Defrost frozen vial into T-225. • Step 2, Day 5: (when 85% confluent): Split one T-225 at 3×10^6 cells per flask. • Step 3, Day 8: Splits cells to set up for the assay plates as described below.
# T-Rex APOL1 HEK cells are split twice per week to keep the confluence state below 85% of the culture flask surface area. Cells can be kept until passage 25. • Cell Culture Medium • DMEM high glucose +10% FBS, +P/S, +5 μg/mL blasticidin, +1 μg/mL puromycin. • 500 mL DMEM, +55 mL FBS, +5 mL P/S, +280 μL blasicidin 10 mg/mL, +56 μL Puromycin 10 mg/mL. • Assay Media • Opti-MEM reduced serum medium from Invitrogen.
# Preparation of Cell Assay Plates • Culture medium is removed from the x cm^2 T-flask by aspiration. • The cell monolayer is rinsed with PBS 1× at room temperature. PBS is removed by aspiration. • Cells are trypsinized using Trypsin. • The flasks are incubated at room temperature for 2-3 minutes. • Complete DMEM medium is then added. Cell suspension is then transferred to a 50 mL Falcon polypropylene tube. • Cells are then counted using a Biorad TC10 cell counter and the required amount of cells are centrifuged at 1200 RPM for 5 minutes. Required amount is 1.3×10^6 cells/mL APOL1 T-Rex HEK cells. • The pellet is suspended in the assay medium. • Using the MultiDrop, add 20 μL to each well (corresponds to 26000 cells total per well) of a 384-well black, transparent, flat bottom Poly-D coated plate. • Tetracycline as prepared in the following section is added to the cells before plating to induce APOL1 expression. • Plates are left at room temperature for 20 to 30 minutes before incubation at 37° C. and 5% CO2. […]
row,SMILES,IC50
1,"CC(CC(=O)N[C@H]1CCNC1=O)c1c(-c2ccc(F)cc2)[nH]c2c(F)cc(F)cc12 (mixture of isomers) [Compound 96, 3-[5,7-difluoro-2-(4-fluorophenyl)-1H-indol-3-yl]-N-[(3S)-2-oxopyrrolidin-3-yl]butanamide]",> 1000 nM
2,"CC(CC(=O)N[C@@H]1C(=O)NC[C@H]1O)c1c(-c2ccc(F)cc2)[nH]c2c(F)cc(F)cc12 (mixture of isomers) [Compound 97, 3-[5,7-difluoro-2-(4-fluorophenyl)-1H-indol-3-yl]-N-[(3S,4R)-4-hydroxy-2-oxo-pyrrolidin-3-yl]butanamide]",> 1000 nM
3,"O=C(CCc1c(-c2ccc(F)cc2)[nH]c2cc(O)ccc12)N[C@@H]1C(=O)NC[C@H]1O (stereo in doubt) [Compound 110, 3-[2-(4-fluorophenyl)-6-hydroxy-1H-indol-3-yl]-N-[(3S,4R)-4-hydroxy-2-oxo-pyrrolidin-3-yl]propanamide]",> 1000 nM
4,"CC(=O)O[C@@H]1CNC(=O)[C@H]1NC(=O)CCc1c(-c2ccc(F)cc2)[nH]c2c(F)cc(F)cc12 [Compound 4, [(3R,4S)-4-[3-[5,7-difluoro-2-(4-fluorophenyl)-1H-indol-3-yl]propanoylamino]-5-oxo-pyrrolidin-3-yl]acetate]",> 1000 nM
5,O=C(CCc1c(-c2ccc(F)cc2)[nH]c2c(F)cc(F)cc12)N[C@H]1C[C@@H](CF)NC1=O [Compound 9],> 1000 nM
6,O=C(CCc1c(-c2ccc(F)cc2)[nH]c2c(F)cc(F)cc12)N[C@H]1C[C@H](CF)NC1=O [Compound 10],> 1000 nM
7,C[C@H]1CNC(=O)[C@H]1NC(=O)CCc1c(-c2ccc(F)cc2)[nH]c2c(F)cc(F)cc12 [Compound 11],> 1000 nM
8,O=C(CCc1c(-c2ccc(F)cc2)[nH]c2c(F)cc(F)cc12)N[C@H]1C(=O)NC[C@@H]1O [Compound 12],250 to 1000 nM
9,O=C(CCc1c(-c2ccc(F)cc2)[nH]c2c(F)cc(F)cc12)N[C@H]1C(=O)NC[C@H]1O [Compound 15],250 to 1000 nM
10,O=C(CCc1c(-c2ccc(F)cc2)[nH]c2c(F)cc(F)cc12)NC1CC2(CC2)NC1=O (centres unmarked) [Compound 17],> 1000 nM
11,COc1cc(F)cc2c(CCC(=O)N[C@H]3CCNC3=O)c(-c3ccc(F)cc3)[nH]c12 [Compound 41],250 to 1000 nM
12,N#Cc1cccc(-c2[nH]c3ccc(F)cc3c2CCC(=O)N[C@H]2CCNC2=O)c1 [Compound 53],> 1000 nM
13,"COc1ccc2[nH]c(-c3ccc(F)cc3)c(CCC(=O)N[C@H]3CCNC3=O)c2c1 [Compound 56, 3-[2-(4-fluorophenyl)-5-methoxy-1H-indol-3-yl]-N-[(3S)-2-oxopyrrolidin-3-yl]propanamide]",> 1000 nM
14,O=C(CCc1c(-c2ccc(F)cc2)[nH]c2c(F)c(F)ccc12)N[C@H]1CCNC1=O [Compound 57],250 to 1000 nM
15,O=C(CCc1c(-c2ccccc2)[nH]c2c(F)cccc12)N[C@H]1CCNC1=O [Compound 60],250 to 1000 nM
16,O=C(CCc1c(-c2ccccc2)[nH]c2c(C3=CCOC3)cccc12)N[C@@H]1C(=O)NC[C@H]1O [Compound 64],> 1000 nM
17,O=C(CCc1c(-c2ccccc2)[nH]c2c(C3CCOC3)cccc12)N[C@@H]1C(=O)NC[C@H]1O (some centres unmarked) [Compound 65],250 to 1000 nM
18,CC(C)(O)c1cccc2c(CCC(=O)N[C@@H]3C(=O)NC[C@H]3O)c(-c3ccccc3)[nH]c12 [Compound 66],250 to 1000 nM
19,C=C(C)c1cccc2c(CCC(=O)N[C@@H]3C(=O)NC[C@H]3O)c(-c3ccccc3)[nH]c12 [Compound 67],250 to 1000 nM
20,CC(C)c1cccc2c(CCC(=O)N[C@@H]3C(=O)NC[C@H]3O)c(-c3ccccc3)[nH]c12 [Compound 68],250 to 1000 nM
21,COc1cccc2c(CCC(=O)N[C@H]3CCNC3=O)c(-c3ccc(F)cc3)[nH]c12 [Compound 77],> 1000 nM

# Further lines, results first:
row,IC50,SMILES
1,< 250 nM,Cc1ccc(-c2[nH]c3c(F)cc(F)cc3c2CCC(=O)N[C@@H]2C(=O)NC[C@H]2O)cc1 [Compound 22]
2,< 250 nM,Cc1ccc(-c2[nH]c3c(F)cc(F)cc3c2CCC(=O)N[C@H]2CCNC2=O)cc1 [Compound 23]
3,< 250 nM,Cc1ccc(-c2[nH]c3c(F)cc(F)cc3c2CCC(=O)N[C@@H]2CCNC2=O)cc1 [Compound 24]
4,< 250 nM,O=C(CCc1c(-c2ccccc2)[nH]c2c(F)cc(F)cc12)N[C@H]1CCNC1=O [Compound 25]
5,250 to 1000 nM,Cc1cc(F)c2[nH]c(-c3ccc(F)cc3)c(CCC(=O)N[C@H]3CCNC3=O)c2c1 [Compound 31]
6,< 250 nM,O=C(CCc1c(-c2ccc(F)cc2)[nH]c2c(F)cc(Cl)cc12)N[C@H]1CCNC1=O [Compound 32]
7,250 to 1000 nM,O=C(CCc1c(-c2ccc(F)cc2)[nH]c2c(F)cc(Cl)cc12)N[C@@H]1CCNC1=O [Compound 33]
8,< 250 nM,O=C(CCc1c(-c2ccc(F)cc2)[nH]c2c(Cl)cc(F)cc12)N[C@H]1CCNC1=O [Compound 34]
9,< 250 nM,O=C(CCc1c(-c2ccccc2)[nH]c2c(Cl)cc(F)cc12)N[C@@H]1C(=O)NC[C@H]1O [Compound 35]
10,< 250 nM,Cc1cc(F)cc2c(CCC(=O)N[C@H]3CCNC3=O)c(-c3ccc(F)cc3)[nH]c12 [Compound 38]
11,250 to 1000 nM,Cc1cc(F)cc2c(CCC(=O)N[C@H]3CCNC3=O)c(-c3ccc(F)cc3)[nH]c12 [Compound 39]
12,< 250 nM,"O=C(CCc1c(-c2ccc(F)cc2)[nH]c2ccc(Cl)cc12)N[C@@H]1C(=O)NC[C@H]1O [Compound 45, 3-[5-chloro-2-(4-fluorophenyl)-1H-indol-3-yl]-N-[(3S,4R)-4-hydroxy-2-oxo-pyrrolidin-3-yl]propanamide]"
13,< 250 nM,"C=Cc1cccc2c(CCC(=O)N[C@@H]3C(=O)NC[C@H]3O)c(-c3ccccc3)[nH]c12 [Compound 62, N-[(3S,4R)-4-hydroxy-2-oxo-pyrrolidin-3-yl]-3-(2-phenyl-7-vinyl-1H-indol-3-yl)propanamide]"
14,< 250 nM,O=C(CCc1c(-c2ccccc2)[nH]c2c(C3CC3)cccc12)N[C@@H]1C(=O)NC[C@H]1O [Compound 63]
15,< 250 nM,Cc1cccc2c(CCC(=O)N[C@@H]3C(=O)NC[C@H]3O)c(-c3ccccc3)[nH]c12 [Compound 69]
16,< 250 nM,Cc1cccc2c(CCC(=O)N[C@@H]3C(=O)NC[C@H]3O)c(-c3ccc(F)cc3)[nH]c12 [Compound 71]
17,< 250 nM,O=C(CCc1c(-c2ccccc2)[nH]c2c(Cl)cccc12)N[C@@H]1C(=O)NC[C@H]1O [Compound 74]
18,< 250 nM,O=C(CCc1c(-c2ccc(F)cc2)[nH]c2c(F)c(F)c(F)cc12)N[C@@H]1C(=O)NC[C@H]1O [Compound 79]
19,< 250 nM,O=C(CCc1c(-c2ccc(F)cc2)[nH]c2cc(F)c(F)cc12)N[C@@H]1C(=O)NC[C@H]1O [Compound 81]
20,< 250 nM,Cc1c(F)ccc2c(CCC(=O)N[C@@H]3C(=O)NC[C@H]3O)c(-c3ccc(F)cc3)[nH]c12 [Compound 83]
